The target in test [1] is T1, Full length DGKζ (in-house protein M1-V929) (Homo sapiens, UniProt Q13574).
T1 construct: His (N); TEV site (N); made in house; host or cells: Sf9 insect cells (Bac-to-Bac baculovirus)
Nature of the test: Biochemical DGK IC50 assay (ADP-Glo, lipid micelle substrate), DGKζ. The conditions noted are these: 1 hour preincubation, 1 hour reaction, room temperature. In a few lines:
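Enzyme: full-length human DGKζ M1-V929, produced in baculovirus-infected Sf9 cells; substrate DAG/PS micelles. Buffer 50 mM HEPES, 10 mM MgCl2, 0.01 mM CaCl2, 0.1 mM Na3VO4.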
A general note: ADP-Glo turns the ADP formed in a reaction into a luminescent signal.

Test [2] has as its target T2, Full length DGKα (D21-10BG, SignalChem) (Homo sapiens, UniProt P23743).
T2 construct: Full length DGKα (D21-10BG, SignalChem); purchased SignalChem D21-10BG
Nature of the test: Biochemical DGK IC50 assay (ADP-Glo, lipid micelle substrate), DGKα. The conditions noted are these: 1 hour preincubation, 1 hour reaction, room temperature. The gist of the method:
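ADP-Glo luminescence quantified ADP produced after a 1 h room-temperature reaction of full-length DGKα on DAG/PS micelles, in HEPES buffer containing MgCl2, CaCl2, vanadate, BSA and Tween-20. IC50 values derive from activity inhibition over a compound concentration series.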

A word on the IC50: it is the concentration that inhibits the measured activity by half.

Bounds are passed on as bounds.

T2 sequence (P23743 whole entry): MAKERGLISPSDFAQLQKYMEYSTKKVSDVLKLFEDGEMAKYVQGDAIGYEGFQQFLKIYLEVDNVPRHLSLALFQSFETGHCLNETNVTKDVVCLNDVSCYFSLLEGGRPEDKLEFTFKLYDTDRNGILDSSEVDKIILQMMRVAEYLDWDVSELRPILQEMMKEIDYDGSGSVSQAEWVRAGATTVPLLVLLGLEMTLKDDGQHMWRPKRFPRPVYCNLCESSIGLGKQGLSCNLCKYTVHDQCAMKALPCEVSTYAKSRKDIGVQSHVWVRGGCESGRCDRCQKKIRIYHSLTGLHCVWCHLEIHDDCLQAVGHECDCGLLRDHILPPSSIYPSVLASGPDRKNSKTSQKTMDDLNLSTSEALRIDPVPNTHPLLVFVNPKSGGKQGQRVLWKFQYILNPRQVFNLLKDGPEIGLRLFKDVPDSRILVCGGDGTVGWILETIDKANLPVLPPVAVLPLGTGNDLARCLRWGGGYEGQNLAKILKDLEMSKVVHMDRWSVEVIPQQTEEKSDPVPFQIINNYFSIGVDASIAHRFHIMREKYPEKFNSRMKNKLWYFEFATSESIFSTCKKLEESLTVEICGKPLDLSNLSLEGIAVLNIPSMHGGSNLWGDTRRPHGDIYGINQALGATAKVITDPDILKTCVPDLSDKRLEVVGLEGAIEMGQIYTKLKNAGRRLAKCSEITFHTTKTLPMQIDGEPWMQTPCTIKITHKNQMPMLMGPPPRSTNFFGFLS
T1 sequence (Q13574 1-929 isoform Q13574-4): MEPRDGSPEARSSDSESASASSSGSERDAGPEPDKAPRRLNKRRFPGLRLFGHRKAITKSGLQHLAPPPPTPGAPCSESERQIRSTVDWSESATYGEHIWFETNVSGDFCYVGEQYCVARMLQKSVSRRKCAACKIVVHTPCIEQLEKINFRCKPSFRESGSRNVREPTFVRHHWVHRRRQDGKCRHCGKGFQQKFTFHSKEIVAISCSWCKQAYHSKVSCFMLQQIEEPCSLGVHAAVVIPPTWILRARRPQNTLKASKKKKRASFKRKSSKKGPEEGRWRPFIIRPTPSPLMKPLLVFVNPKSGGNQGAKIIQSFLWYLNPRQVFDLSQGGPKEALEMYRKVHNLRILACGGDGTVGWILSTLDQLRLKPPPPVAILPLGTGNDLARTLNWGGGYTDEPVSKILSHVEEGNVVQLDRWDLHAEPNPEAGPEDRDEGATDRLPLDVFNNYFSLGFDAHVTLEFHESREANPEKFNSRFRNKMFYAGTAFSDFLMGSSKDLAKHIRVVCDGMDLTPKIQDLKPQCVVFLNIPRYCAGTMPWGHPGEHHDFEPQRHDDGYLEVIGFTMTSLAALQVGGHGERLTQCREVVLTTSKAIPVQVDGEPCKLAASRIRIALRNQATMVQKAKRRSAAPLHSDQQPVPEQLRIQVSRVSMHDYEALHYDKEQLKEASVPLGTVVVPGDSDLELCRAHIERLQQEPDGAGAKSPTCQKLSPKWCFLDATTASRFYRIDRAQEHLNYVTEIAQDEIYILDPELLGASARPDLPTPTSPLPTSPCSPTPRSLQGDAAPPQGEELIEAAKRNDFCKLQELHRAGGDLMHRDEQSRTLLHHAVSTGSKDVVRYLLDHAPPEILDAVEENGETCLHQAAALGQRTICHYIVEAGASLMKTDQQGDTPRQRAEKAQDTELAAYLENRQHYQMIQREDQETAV

`CC(c1ccc2c(c1)OC(C)(C)O2)N1C[C@H](C)N(c2nc(=O)n(C)c3c2nc(CC#N)n3C)C[C@H]1C` (single isomer, unassigned) [Compound A98b]: the IC50 in test [1] was found to be 0.262 µM; in test [2] it was 19.7 µM.

In the case of `CCn1c(CC#N)nc2c(N3C[C@@H](C)N(C(C)c4ccc(CN5CCOCC5)cc4)C[C@@H]3C)nc(=O)n(C)c21` (stereo partly drawn) [Compound A139, 2-(6-((2S,5R)-2,5-dimethyl-4-(1-(4-(morpholinomethyl)phenyl)ethyl)piperazin-1-yl)-9-ethyl-3-methyl-2-oxo-3,9-dihydro-2H-purin-8-yl)acetonitrile], the IC50 came to 2.19 µM in test [1] and 120 µM in test [2].

`CC[C@@H]1CN(c2nc(=O)n(C)c3c2nc(CC#N)n3CC)[C@@H](C)CN1C(C)c1ccc2c(n1)OC(C)(C)CO2` (mixture of isomers) [Compound A158, 2-(6-((2S,5R)-4-(1-(3,3-dimethyl-2,3-dihydro-[1,4]dioxino[2,3-b]pyridin-6-yl)ethyl)-5-ethyl-2-methylpiperazin-1-yl)-9-ethyl-3-methyl-2-oxo-3,9-dihydro-2H-purin-8-yl)acetonitrile]: the figures for the IC50 in test [1] and in test [2] were 0.033 µM and 122 µM, respectively.

`CC(c1ccc2c(c1)OCCO2)N1C[C@H](C)N(c2nc(=O)n(C)c3c2nc(CC#N)n3C)C[C@H]1C` (stereo partly drawn) [Compound A58, 2-(6-((2S,5R)-4-(1-(2,3-dihydrobenzo[b][1,4]dioxin-6-yl)ethyl)-2,5-dimethylpiperazin-1-yl)-3,9-dimethyl-2-oxo-3,9-dihydro-2H-purin-8-yl)acetonitrile]: the IC50 in test [1] was 0.04 µM; in test [2] it was more than 10 µM.

For `CCn1c(CC#N)nc2c(N3C[C@@H](C)N(C(C)c4cccc(C(C)C)n4)C[C@@H]3C)nc(=O)n(C)c21` (stereo partly drawn) [Compound A123, 2-(9-ethyl-6-((2S,5R)-4-(1-(6-isopropylpyridin-2-yl)ethyl)-2,5-dimethylpiperazin-1-yl)-3-methyl-2-oxo-3,9-dihydro-2H-purin-8-yl)acetonitrile], the IC50 stood at 0.049 µM in test [1] and 128 µM in test [2].

Take `CCn1c(CC#N)nc2c(N3C[C@@H](C)N(C(C)c4c(F)cc5c(c4F)OC(C)(C)O5)C[C@@H]3C)nc(=O)n(C)c21` (single isomer, unassigned) [Compound A176b]: the IC50 in test [1] worked out at 0.007 µM; in test [2] it was 7.19 µM.

On to `CC#CC(c1ccc(C)cc1)N1C[C@H](C)N(c2nc(=O)n(C)c3c2nc(CC#N)n3CC)C[C@H]1C` (stereo partly drawn) [Compound A145, 2-(6-((2S,5R)-2,5-dimethyl-4-(1-(p-tolyl)but-2-yn-1-yl)piperazin-1-yl)-9-ethyl-3-methyl-2-oxo-3,9-dihydro-2H-purin-8-yl)acetonitrile], for which the IC50 in test [1] is 0.48 µM; in test [2] it was 5.62 µM.

Turning to `CCn1c(CC#N)nc2c(N3C[C@@H](C)N(C(C)c4ccc5c(c4F)OC(C)(C)O5)C[C@@H]3C)c(F)c(=O)n(C)c21` (mixture of isomers) [Compound A190, 2-(3-ethyl-6-fluoro-7-((2S,5R)-4-(1-(4-fluoro-2,2-dimethylbenzo[d][1,3]dioxol-5-yl)ethyl)-2,5-dimethylpiperazin-1-yl)-4-methyl-5-oxo-4,5-dihydro-3H-imidazo[4,5-b]pyridin-2-yl)acetonitrile], the IC50 in test [1] was found to be 0.013 µM; in test [2], 106 µM.

`CC(c1ccc2c(c1)OC(C)(C)CO2)N1C[C@H](C)N(c2nc(=O)n(C)c3c2nc(CC#N)n3C)C[C@H]1C` (single isomer, unassigned) [Compound A59a]: the IC50 is 0.238 µM in test [1] and 40.3 µM in test [2].

As for `Cc1cnc2ccc(C(C)N3C[C@H](C)N(c4nc(=O)n(C)c5c4nc(CC#N)n5C)C[C@H]3C)cc2n1` (single isomer, unassigned) [Compound A49a], the IC50 in test [1] amounted to 0.006 µM; in test [2], 77.9 µM.

(Values after US20260125378A2, “Heterocyclic Compounds” (BeOne Medicines I GmbH, priority 2023, published 2026).)
